One compound from paper PMC10159843, “Babesia duncani multi-omics identifies virulence factors and drug targets” (Nature Microbiology, 2023) can be followed below.

The experiment relates to BdATVR parasites. The format is cell-based, Babesia duncani. Particulars: IC50 BdATVR versus WA1.

As to `O=C1C(O)=C([C@H]2CC[C@H](c3ccc(Cl)cc3)CC2)C(=O)c2ccccc21` [Atovaquone], the “fold resistance of BdATVR compared with WA1” value was 15.2 fold.
